Source: patent US20250312416A1, “METHOD AND PHARMACEUTICAL COMPOSITION FOR CARTILAGE REGENERATION” (FAR EASTERN MEMORIAL HOSPITAL, priority 2024, published 2025)
Entries after “also recorded” stand apart in the source; their conditions may differ.

Experiments:
clinical-grade ADSCs = test: Real-time PCR of chondrogenic genes in ADSCs; assay type: cell-based, human
Procedure: Real-time PCR analysis was conducted on day 7 for CXCL12/CXCL14 peptides treated ADSCs, evaluating the expression of COMP, SOX9, COL2A1, ACAN, ITGB1, and SOSTDC1 genes. Cells were harvested, and RNA extraction was performed using a LightCycler® (Roche Applied Science). The fold change in gene expression on the y-axis was calculated relative to the same gene expression in untreated chondrocytes. Statistical analysis was conducted using one-way ANOVA. Significance levels are denoted as follows: * p<0.05, ** p<0.01, *** p<0.001, and **** p<0.0001 for comparisons between PBS treatments and the untreated group.
Real-time PCR analysis was performed on day 7 for ADSCs treated with CXCR4 agonists, assessing the expression of COMP, SOX9, COL2A1, ACAN, ITGB1, CXCL14, and SOSTIC1 genes. Cellular harvest, RNA extraction, and gene expression quantification were conducted using a LightCycler® (Roche Applied Science). The fold change in gene expression on the y-axis was calculated relative to the same gene expression in untreated chondrocytes. Statistical analysis was executed through one-way ANOVA. Significance levels are represented as follows: * p<0.05, ** p<0.01, *** p<0.001, and **** p<0.0001, indicating the significance of comparisons between PBS treatments and the untreated group.
Alcian blue staining was used to assess the chondrogenic differentiation of ADSC pellets. […] Treatment with CXCL14-PM1, CXCL14-PM2, CXCL14-PM3, and CXCR4-PM1 was sufficient to enhance the expression of chondrogenic genes in ADSCs. On day 7, real-time PCR was performed to analyze the expression of key chondrogenic markers, including SOX9, COL2A1, COMP, ACAN, ITGB1, CXCL14, and CXCR4, in ADSCs treated with these modified peptides. ADSCs were exposed to distinct peptide modifications derived from CXCL12, CXCL14, and CXCR4 at a concentration of 10 ng for a one-day treatment, after which the medium was replaced with fresh peptide-free medium. At the end of the treatment period, RNA was extracted to evaluate the expression levels of chondrogenesis-related cytokine genes. Gene expression quantification was performed using a LightCycler system (Roche Applied Science), and fold changes were calculated relative to untreated control ADSCs. […] FIG. 16(D) provides a summary of the results for alanine substitution with positively or negatively charged amino acids in CXCL12, CXCL14, and CXCR4 peptides.
ADSCs were treated with CXCL14-P, CXCL14-P1, or CXCL14-P2, respectively, at a concentration of 10 ng for 24 hours, after which the medium was replaced with fresh peptide-free medium. On day 7, total RNA was extracted, and real-time PCR analysis was performed to assess the expression levels of key chondrogenic markers, including ACAN, COL2A1, SOX9, and COMP. Gene expression levels were quantified using a LightCycler system (Roche Applied Science), with fold changes calculated relative to untreated control ADSCs. […] Immunofluorescence staining was performed to detect Collagen Type II, SOX9, COMP, and nuclei (Hoechst 33342) in 3D ADSC spheroids (middle panel). […]
Human IPFP-MSCs and ADSCs were expanded in Dulbecco's Modified Eagle's Medium (DMEM, Gibco, cat. no 2145484) with 10% FBS under a 37° C., 5% CO2 atmosphere. MSCs collected and cell extractions were determined gene expression levels of cytokines and chondrogenic markers using a LightCycler® (Roche Applied Science). The fold change in gene expression on the y-axis was calculated based on untreated cell gene expression.

ADSC spheroids = test: Immunofluorescence / confocal microscopy of chondrogenic proteins in ADSC spheroids; assay type: cell-based, human; details: 3D ADSC spheroids, by day 7
Procedure: Both side views (observed in the x and z plane) and bottom views (observed in the […]) of the images are provided. The scale bar is set at 500 μm.
ADSCs were treated with CXCL14-P, CXCL14-P1, or CXCL14-P2, respectively, at a concentration of 10 ng for 24 hours, after which the medium was replaced with fresh peptide-free medium. On day 7, total RNA was extracted, and real-time PCR analysis was performed to assess the expression levels of key chondrogenic markers, including ACAN, COL2A1, SOX9, and COMP. Gene expression levels were quantified using a LightCycler system (Roche Applied Science), with fold changes calculated relative to untreated control ADSCs. […] Immunofluorescence staining was performed to detect Collagen Type II, SOX9, COMP, and nuclei (Hoechst 33342) in 3D ADSC spheroids (middle panel).
(FIG. 3). […] Moreover, fluorescence confocal microscopy was employed to detect protein patterns and confirm the levels of SOX9, type II collagen, and aggrecan proteins in ADSC spheroids. […] Finally, to investigate whether the CXCR4 receptor of CXCL12/CXCL14 confers chondrogenic signaling during chondrogenesis, we treated ADSCs with a CXCR4 agonist for 7 days.
Extracellular vesicles (EVs) derived from MSCs hold significant potential for repairing damaged tissues. In this study, we explored whether EVs from ADSCs could effectively enhance chondrogenesis and promote cartilage repair. Immunofluorescence staining was used to assess protein levels of Collagen Type II (green), SOX9 (red), COMP (indigo), and Hoechst 33342 (gray) in 3D ADSC spheroids treated with MSC-EVs derived from CXCL14 peptide-primed ADSCs (CXCL14-P-MSC-EVs) at various time points. […] To further explore the cartilage repair functions of EVs from CXCL14-P-treated ADSCs and the encapsulation of the transcription factor SOX9 within MSCs and purified EVs, we performed in vivo studies.

UC-MSCs = test: Alcian blue staining of chondrogenic pellets (GAG), UC-MSCs; assay type: cell-based; details: in the presence of TGF-beta
Source text: FIG. 13A provides flowchart illustrating the protocol for peptide treatment and sample collection. […] TGF-beta influenced the expression of chondrogenic genes, including ITGB1 and COMP. […] Treatment with CXCL14/CXCL12 peptides increased GAG content during chondrogenesis in the presence of TGF-beta.
To further validate the role of CXCL14-P and CXCL12-P in regulating chondrogenesis, we compared their effects on another MSC source, umbilical cord-derived mesenchymal stem cells (UC-MSCs). It is important to note that the chondrogenic induction medium contained TGF-β. During chondrogenesis, we observed that the chondrogenic patterns in UC-MSCs were lower than those in ADSCs (FIG. 12). Subsequently, we assessed the chondrogenic potential of UC-MSCs following stimulation with CXCL14-P and CXCL12-P (FIG. 13A). […] Although the expression of chondrogenic genes (FIG. 13B) and GAG content (FIG. 13C) in UC-MSCs was not as pronounced as in ADSCs, the findings confirm that CXCL14-P and CXCL12-P can robustly stimulate chondrogenesis across different MSC sources.

Sequence: ITTKSVSRYRGQEH [CXCL14-P]
- expression of chondrogenic genes (COMP, SOX9, COL2A1, ACAN, ITGB1, SOSTDC1) (clinical-grade ADSCs; day 7, peptides compared to CXCL12/CXCL14 proteins, listed as CXCL14 peptide): significantly upregulated; also recorded: greater ability
- expression of chondrogenic genes (COMP, SOX9, COL2A1, ACAN, ITGB1) (clinical-grade ADSCs; day 7 of treatment with peptide): significantly upregulated
- chondrogenic genes (clinical-grade ADSCs; in the absence of TGF-β): evident
- expression of chondrogenic genes ITGB1 and COMP (clinical-grade ADSCs; in the presence of TGF-β, day 7): significantly enhanced
- Collagen Type II, SOX9, and COMP expression (ADSC spheroids): increase
- GAG content (Alcian blue) (UC-MSCs): increased
